Assay results as given in ChEMBL document CHEMBL1138068 (J Med Chem, 2006).

Assays:
[1] = target: Neuronal acetylcholine receptor subunit alpha-7 (Rattus norvegicus, UniProt Q05941); assay: Displacement of [125I]alpha-BTX from alpha-7 nAChR in rat hippocampus membrane; assay type: cell membranes
Cytochrome P450 2D6 = Cytochrome P450 2D6 (Homo sapiens, UniProt P10635); assay: Inhibition of CYP2D6; assay type: ADME
Sequence of Cytochrome P450 2D6 (P10635 whole entry): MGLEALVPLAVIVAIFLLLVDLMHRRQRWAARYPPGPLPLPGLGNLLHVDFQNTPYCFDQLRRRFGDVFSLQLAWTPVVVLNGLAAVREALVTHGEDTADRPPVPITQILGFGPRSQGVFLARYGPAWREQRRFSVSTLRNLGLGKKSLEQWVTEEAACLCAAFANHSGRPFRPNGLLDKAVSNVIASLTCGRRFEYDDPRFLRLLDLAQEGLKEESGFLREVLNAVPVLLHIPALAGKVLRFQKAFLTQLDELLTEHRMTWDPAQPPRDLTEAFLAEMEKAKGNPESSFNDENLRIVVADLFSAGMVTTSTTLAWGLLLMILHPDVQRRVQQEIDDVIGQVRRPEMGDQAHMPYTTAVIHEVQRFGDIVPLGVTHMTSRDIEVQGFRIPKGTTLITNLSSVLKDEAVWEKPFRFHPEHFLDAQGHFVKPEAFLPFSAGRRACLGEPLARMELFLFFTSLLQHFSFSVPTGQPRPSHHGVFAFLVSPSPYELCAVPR

Sequence of Neuronal acetylcholine receptor subunit alpha-7 (Q05941 whole entry): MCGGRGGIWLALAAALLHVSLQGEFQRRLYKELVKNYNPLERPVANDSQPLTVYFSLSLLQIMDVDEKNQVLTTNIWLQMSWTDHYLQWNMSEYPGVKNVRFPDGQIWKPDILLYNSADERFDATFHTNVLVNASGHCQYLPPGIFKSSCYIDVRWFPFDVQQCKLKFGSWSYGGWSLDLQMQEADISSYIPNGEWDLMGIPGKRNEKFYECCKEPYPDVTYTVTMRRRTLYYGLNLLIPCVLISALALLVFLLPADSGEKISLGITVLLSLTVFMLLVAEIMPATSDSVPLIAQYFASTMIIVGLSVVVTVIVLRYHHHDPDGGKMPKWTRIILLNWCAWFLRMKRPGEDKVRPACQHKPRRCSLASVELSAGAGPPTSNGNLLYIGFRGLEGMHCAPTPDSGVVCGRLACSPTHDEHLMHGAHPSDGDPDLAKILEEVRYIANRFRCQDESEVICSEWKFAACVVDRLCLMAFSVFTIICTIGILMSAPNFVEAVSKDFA

Row | SMILES | Ki [1] [nM] | IC50 (Cytochrome P450 2D6) [nM]
1 | O=C1O[C@@]2(CN3CCC2CC3)CN1c1ccc2c(c1)CCC2 | 200 | 
2 | Cc1nc2cc(N3C[C@@]4(CN5CCC4CC5)OC3=O)ccc2s1 | 60 | 
3 | O=C1O[C@@]2(CN3CCC2CC3)CN1c1ccc(Br)s1 | 4 | 9000
4 | O=C1O[C@]2(CN3CCC2CC3)CN1c1ccc2ccoc2c1 | 50 | 
5 | CCc1cc2cc(N3C[C@@]4(CN5CCC4CC5)OC3=O)ccc2s1 | 135 | > 30000
6 | CCc1c(C)oc2ccc(N3C[C@@]4(CN5CCC4CC5)OC3=O)cc12 | 15 | 
